Data reported in patent US12144889B2, “Methods of treating allergic conjunctivitis” (OCULAR THERAPEUTIX, INC., priority 2020, dated 2024).
One block for each compound: values may come before it.

How the values were obtained:
[1] = oral, cited from earlier work; for Relative Potency: with reference to cortisol
[2] = 25° C.; cited from earlier work
[3] = Solubility of dexamethasone in water / aqueous medium; format: physicochemical; settings: aqueous medium such as the tear fluid
Description: In certain embodiments of the present invention, dexamethasone is micronized and may have a D50 particle size of less than about 10 μm and/or a D99 particle size of less than about 50 μm. A specific suitable micronized dexamethasone for use in certain embodiments of the present invention is “Dexamethasone USP micronized” from Pfizer with a D90 particle size of equal to or less than about 5 μm (i.e., the volume portion of particles with a particle size of or below about 5 μm is 90%), and a D98 particle size of equal to or below about 10 μm (i.e., the volume portion of particles with a particle size of equal to or below about 10 μm is 98%). The “D” value such as in “D50” means that the indicated percentage by volume (such as 50 volume-% in D50 etc.) of all particles within the respective bulk material (which has a certain particle size distribution) has a particle size of or below the indicated value, e.g. a D50 particle size of below about 10 μm means that 50 volume-% of the particles have a particle size of or below about 10 μm. The particle size distribution can be commonly measured by methods known in the art, and includes sieving as well as laser diffraction methods. […]
It is believed that release of the glucocorticoid into the tear fluid is determined by the glucocorticoid's solubility in an aqueous environment. […]

Compound: C[C@]12CCC(=O)C=C1CC[C@@H]1[C@@H]2[C@@H](O)C[C@@]2(C)[C@H]1CC[C@]2(O)C(=O)CO [Cortisol (Hydrocortisone), Cortisol]
- Equivalent Dose [1]: 20 mg
- Relative Potency [1]: 1

- solubility [3]: < 100 µg/mL
Compound: C[C@@H]1C[C@H]2[C@@H]3CCC4=CC(=O)C=C[C@]4(C)[C@@]3(F)[C@@H](O)C[C@]2(C)[C@@]1(O)C(=O)CO [Dexamethasone, 9-Fluor-11β,17,21-trihydroxy-16α-methyl-pregna-1,4-dien-3,20-dion]
- solubility in water [2]: approx. 89 mg/L
- Equivalent Dose [1]: 0.8 mg

Compound: C[C@]12C=CC(=O)C=C1CC[C@@H]1[C@@H]2[C@@H](O)C[C@@]2(C)[C@H]1CC[C@]2(O)C(=O)CO [Prednisolone]
- Equivalent Dose [1]: 5 mg
- Relative Potency [1]: 4

Compound: C[C@]12C=CC(=O)C=C1CC[C@H]1[C@@H]3C[C@@H](O)[C@](O)(C(=O)CO)[C@@]3(C)C[C@H](O)[C@@]12F [Triamcinolone]
- Equivalent Dose [1]: 4 mg
- Relative Potency [1]: 5
